Test results as given in publication PMC4731787, “Structural basis for the recognition of two consecutive mutually interacting DPF motifs by the SGIP1 μ homology domain” (Scientific Reports, 2016).
Like-named read-outs stand apart in the source and are kept apart here. One block for each molecule: values may come before it. GST = glutathione S-transferase fusion tag

Tests used:
[1] = target: T1, SGIP1 μHD (residues 552 to 828) (Homo sapiens, UniProt Q9BQI5); assay: ITC of Eps15 fragments with the SGIP1 μHD; assay type: binding; conditions: for Kd: 50 mM Tris-HCl pH 8.0, 50 mM NaCl, global fit of two runs
T1 construct: the SGIP1 μHD (residues 552 to 828); GST (N, cleaved yes); made in house; host or cells: Escherichia coli BL21-Gold (DE3) or Rosetta2
T1 sequence (Q9BQI5 552-828): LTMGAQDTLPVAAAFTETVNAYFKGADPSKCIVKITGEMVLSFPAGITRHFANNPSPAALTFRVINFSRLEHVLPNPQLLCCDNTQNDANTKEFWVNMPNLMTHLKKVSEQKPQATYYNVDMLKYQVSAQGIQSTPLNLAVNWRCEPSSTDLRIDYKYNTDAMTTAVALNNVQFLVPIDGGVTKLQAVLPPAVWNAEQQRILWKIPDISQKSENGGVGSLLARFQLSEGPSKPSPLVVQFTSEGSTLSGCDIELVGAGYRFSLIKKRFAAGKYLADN
Method: For the majority of the ITC experiments, the SGIP1 μHD, its mutants, or the FCHo1 μHD, in 50 mM Tris-HCl buffer (pH 8.0) containing 50 mM NaCl, was loaded in the sample cell, in a volume of 1.42 ml, and titrated with various Eps15-derived fragments or peptides in the same buffer, with an initial 5 μl injection and subsequent 10 μl injections, for a total of 25 injections. The titrations were performed while the samples were stirred at 310 r.p.m. at 25 °C. Each injection was followed by an interval of 4 min, to allow baseline stabilization. For the other ITC experiments indicated in Supplementary Table 2, the Eps15-derived fragments or peptides in the sample cell were titrated with the SGIP1 or FCHo1 μHD. All ITC experiments were performed on a VP-ITC microcalorimeter (MicroCal, LLC) and repeated twice, and the data were processed with the program NITPIC[42]. The two data sets from each ITC experiment were analyzed by global weighted least-squares fitting with the program SEDPHAT[43]. Figures for the ITC data were created with the program GUSSI (http://biophysics.swmed.edu/MBR/software.html). To obtain the values of the traditional stoichiometric parameter N in our ITC data analyses (Supplementary Table 2), we used the values of the parameters of the incompetent fractions of proteins and ligands. […] The values of the incompetent fractions are between 0 and 1, whereas the other parameter affecting the traditional parameter N, the number of sites, was fixed as 1 and 2, for the single- and two-site models, respectively. Thus, in the two-site model, the values of N for the first and second sites are identical in our ITC data analyses (Supplementary Table 2).

[2] = target: T2, SGIP1 µ homology domain (µHD), residues 552 to 828 (human, UniProt Q9BQI5-1 552-828); assay: ITC; µHD, µHD mutant or α-adaptin appendage domain in the sample cell, titrated with the Eps15 fragment or peptide; 50 mM Tris-HCl (pH 8.0), 50 mM NaCl, 25 °C; VP-ITC; two data sets fitted globally (NITPIC, SEDPHAT); single-site model; conditions: both partners purified
T2 construct: pGEX-6P-1 construct cut with 3C protease; also called SGIP1 µHD; human SGIP1 µHD (aa552–828); source: E. coli BL21-Gold (DE3) or Rosetta2, purified (Glutathione Sepharose 4B, 3C protease cleavage, Superdex 200)
T2 sequence (looked up): T1 sequence (Q9BQI5 552-828)

[3] = 25 °C, μHD in cell titrated with fragment, single-site model
[4] = 25 °C, μHD in cell titrated with fragment, single-site model, ± 68.3% confidence interval
[5] = μHD in cell titrated with fragment, single-site model, ± 68.3% confidence interval
[6] = 25 °C, μHD in sample cell titrated with Eps15 fragment, single-site model, ± 68.3% confidence interval
[7] = 25 °C, fragment in cell titrated with μHD, two-site model, first site
[8] = 25 °C, fragment in cell titrated with μHD, two-site model, second site

Molecule: Ac-YKDDPFGKIDPFGGDPFKGSDPFA-NH2 [Eps15-632–654]
-TΔS [1, 3]: 1.453 kcal/mol
ΔG [1, 3]: -7.491 kcal/mol
ΔH [1, 4]: -8.944 ± 0.142 kcal/mol
N (binding ratio of Eps15 fragment to μHD) [1, 5]: 0.70 ± 0.01

Molecule: Ac-YSDPFKDDPFGKI-NH2 [Eps15-628–639]
-TΔS [1, 3]: 1.528 kcal/mol
ΔG [1, 3]: -4.882 kcal/mol
ΔH [1, 4]: -6.41 ± 0.646 kcal/mol

Molecule: Ac-YNPFGGDPFKG-NH2 [Eps15-640–649D640N]
-TΔS [1, 3]: -0.585 kcal/mol
ΔG [1, 3]: -5.441 kcal/mol
ΔH [1, 4]: -4.856 ± 0.193 kcal/mol

Molecule: Ac-YSDPFKDDPFGKIDPFGGDPFKGSDPFA-NH2 [Eps15-628–654]
Kd ([1]; 25 °C, μHD in sample cell titrated with Eps15 fragment, single-site model, ± 68.3% confidence interval, read-out: Kd): 1.1 ± 0.1 µM
-TΔS [1, 3]: 1.711 kcal/mol
ΔG [1, 3]: -8.135 kcal/mol
ΔH [1, 4]: -9.846 ± 0.223 kcal/mol
N (binding ratio of Eps15 fragment to μHD) [1, 5]: 0.67 ± 0.01

Molecule: Ac-YKDDPFGKIDPFGG-NH2 [Eps15-632–644]
-TΔS [1, 3]: -0.071 kcal/mol
ΔG [1, 3]: -5.584 kcal/mol
ΔH [1, 4]: -5.513 ± 0.12 kcal/mol

Molecule: Eps15-618–648: Eps15 fragment containing the first five DPF motifs of Eps15-618–654 (DFFQSDPFVGSDPFKDDPFGKIDPFGGDPFK; UniProt P42566 618-648, looked up, fragment)
-TΔS [1, 3]: 0.581 kcal/mol
ΔG [1, 3]: -8.722 kcal/mol
ΔH [1, 4]: -9.303 ± 0.257 kcal/mol
N (binding ratio of Eps15 fragment to μHD) [1, 5]: 0.71± 0.02

Molecule: Ac-YSDPFKDDPFGKIDPFGG-NH2 [Eps15-628–644]
binding to the SGIP1 μHD (in words) [1]: significantly weaker affinity than Eps15-622–637 and Eps15-640–654
-TΔS [1, 3]: 1.615 kcal/mol
ΔG [1, 3]: -6.404 kcal/mol
ΔH [1, 4]: -8.019 ± 0.169 kcal/mol
N (binding ratio of Eps15 fragment to μHD) [1, 5]: 0.76 ± 0.01

Molecule: Ac-YEPFGGDPFKG-NH2 [Eps15-640–649D640E]
-TΔS [1, 3]: -0.851 kcal/mol
ΔG [1, 3]: -4.759 kcal/mol
ΔH [1, 4]: -3.908 ± 0.595 kcal/mol

Molecule: Ac-YSDPFVGSDPFKDDPFG-NH2 [Eps15-622–637]
binding to the SGIP1 μHD (in words) [1]: significantly reduced affinity as compared with that of Eps15-530–896
-TΔS [1, 3]: 1.967 kcal/mol
ΔG [1, 3]: -7.247 kcal/mol
ΔH [1, 4]: -9.214 ± 0.138 kcal/mol
N (binding ratio of Eps15 fragment to μHD) [1, 5]: 0.85 ± 0.01

B1: Eps15-622–637 (peptide)
peptide: Ac-YSDPFVGSDPFKDDPFG-NH2
notes: artificial N-terminal Tyr; source: synthetic peptide (Eurofins Genomics)
Kd [2]: 4.9 µM
stoichiometry N [2]: 0.85

B2: Eps15-632–644 (peptide)
peptide: Ac-YKDDPFGKIDPFGG-NH2
notes: artificial N-terminal Tyr; human Eps15 residues 632-644; source: synthetic peptide (Eurofins Genomics)
Kd [2]: 80.8 µM

B3: Eps15-618–648 (domain or fragment, human)
chain: GPLGSYDFFQSDPFVGSDPFKDDPFGKIDPFGGDPFK
notes: source: E. coli, expressed and purified in the same manner as the SGIP1 µHD
stoichiometry N [2]: 0.71

B5: Eps15-632–654 (peptide)
peptide: Ac-YKDDPFGKIDPFGGDPFKGSDPFA-NH2
notes: as for B1
Kd [2]: 3.2 µM
stoichiometry N [2]: 0.7

B6: Eps15-640–649 (peptide)
peptide: Ac-YDPFGGDPFKG-NH2
notes: extra (artificial) N-terminal Tyr residue, to facilitate the concentration determination by absorbance; source: synthetic peptide (Eurofins Genomics)
Kd [2]: 30.2 µM
stoichiometry N [2]: 0.66

B9: Eps15-640–649D640E (peptide)
peptide: Ac-YEPFGGDPFKG-NH2
notes: as for B1
Kd [2]: 325 µM

B10: Eps15-640–649D640N (peptide)
peptide: Ac-YNPFGGDPFKG-NH2
notes: as for B1
Kd [2]: 103 µM

B12: Eps15-628–639 (peptide)
peptide: Ac-YSDPFKDDPFGKI-NH2
notes: as for B1
Kd [2]: 264 µM

B13: Eps15-628–644 (peptide)
peptide: Ac-YSDPFKDDPFGKIDPFGG-NH2
notes: as for B1
Kd [2]: 20.2 µM
stoichiometry N [2]: 0.76

More lines, now with the values ahead:

Kd [1, 6]: below detection limit
Molecule: Eps15-643–650: Eps15 fragment, residues 643–650, 1 DPF motif (Ac-YGGDPFKGS-NH2)

binding to the SGIP1 μHD (in words) [1]: weakly bound to the μHD
-TΔS [1, 3]: 1.395 kcal/mol
ΔG [1, 3]: -5.327 kcal/mol
ΔH [1, 4]: -6.722 ± 1.053 kcal/mol
Strength of affinity ([1]; human SGIP1 µHD (aa552–828), Supplementary Table 3, This study): low
Molecule: Ac-YSTDPFATSSTDPFSA-NH2 [Eps15-662–676]

Kd [1, 6]: below detection limit
Molecule: Eps15-640–649P641L: P641L mutant of Eps15-640–649 (Ac-YDLFGGDPFKG-NH2)

-TΔS [1, 3]: 2.227 kcal/mol
ΔG [1, 3]: -4.965 kcal/mol
ΔH [1, 4]: -7.192 ± 0.527 kcal/mol
Molecule: Ac-YDPWGGDPFKG-NH2 [Eps15-640–649F642W]

Kd [1, 6]: below detection limit
Molecule: Eps15-640–649F647W: F647W mutant of Eps15-640–649 (Ac-YDPFGGDPWKG-NH2)

-TΔS [1, 3]: -1.138 kcal/mol
ΔG [1, 3]: -5.642 kcal/mol
ΔH [1, 4]: -4.504 ± 0.155 kcal/mol
Molecule: Ac-YDPFGGNPFKG-NH2 [Eps15-640–649D645N]

binding to the SGIP1 μHD (in words) [1]: did not
Kd [1, 6]: below detection limit
Molecule: Eps15-797–807: Eps15 fragment spanning residues 797 to 807, 2 DPF motifs (Ac-YPDPFKLNDPFQ-NH2)

Kd [1, 6]: below detection limit
Molecule: Eps15-650–659: Eps15 fragment, residues 650–659, 1 DPF motif (Ac-YSDPFASDCFF-NH2)

Kd [1, 6]: below detection limit
Molecule: Eps15-640–649P646L: P646L mutant of Eps15-640–649 (Ac-YDPFGGDLFKG-NH2)

Kd [1, 6]: below detection limit
Molecule: Eps15-640–649D645E: D645E mutant of Eps15-640–649 (Ac-YDPFGGEPFKG-NH2)

-TΔS [1, 3]: 3.566 kcal/mol
ΔG [1, 3]: -6.344 kcal/mol
ΔH [1, 4]: -9.91 ± 0.683 kcal/mol
N (binding ratio of Eps15 fragment to μHD) [1, 5]: 0.75 ± 0.02
Molecule: Ac-YDPFKGSDPFA-NH2 [Eps15-645–654]

Kd [1, 6]: below detection limit
B4: GST-Eps15-530–594: GST-tagged Eps15 fragment, residues 530–594, 0 DPF motifs (protein)
chain: {GST}-STSSSETANLNEHVEGQSNLESEPIHQESPARSSPELLPSGVTDENEVTTAVTEKVCSELDNNRH

Kd [2]: 73.1 µM
B7: Eps15-640–649D645N (peptide)
peptide: Ac-YDPFGGNPFKG-NH2
notes: as for B1

Kd [2]: 229 µM
B8: Eps15-640–649F642W (peptide)
peptide: Ac-YDPWGGDPFKG-NH2
notes: as for B1

Kd [2]: 22.4 µM
stoichiometry N [2]: 0.75
B11: Eps15-645–654 (peptide)
peptide: Ac-YDPFKGSDPFA-NH2
notes: as for B6

Kd ([1]; 25 °C, Eps15 fragment in cell titrated with SGIP1 μHD, two-site model, first (higher-affinity) site, ± 68.3% confidence interval, read-out: Kd): 0.046 ± 0.015 µM
Kd ([1]; 25 °C, Eps15 fragment in cell titrated with SGIP1 μHD, two-site model, second site, 68.3% confidence interval, read-out: Kd, second site): 16.6 ± 4.1 µM
-TΔS [1, 7]: -2.45 kcal/mol
ΔG [1, 7]: -10.012 kcal/mol
ΔH ([1]; 25 °C, fragment in cell titrated with μHD, two-site model, first site, ± 68.3% confidence interval): -7.562 ± 0.103 kcal/mol
-TΔS, second site [1, 8]: 0.328 kcal/mol
ΔG, second site [1, 8]: -6.52 kcal/mol
ΔH, second site ([1]; 25 °C, fragment in cell titrated with μHD, two-site model, second site, 68.3% confidence interval): -6.848 ± 0.772 kcal/mol
N (binding ratio of Eps15 fragment to μHD) ([1]; fragment in cell titrated with μHD, two-site model, first site (N identical for both sites), ± 68.3% confidence interval): 1.17 ± 0.02
N, second site ([1]; fragment in cell titrated with μHD, two-site model, second site (N identical for both sites), ± 68.3% confidence interval): 1.17 ± 0.02
B14: GST-Eps15-595–660: GST-tagged Eps15 fragment, residues 595–660, 7 DPF motifs (protein, UniProt P42566 595-660, looked up, fragment)
chain: {GST}-SKEEDPFNVDSSSLTGPVADTNLDFFQSDPFVGSDPFKDDPFGKIDPFGGDPFKGSDPFASDCFFR
